Reference: patent US20180133337A1, “CALICHEAMICIN CONSTRUCTS AND METHODS OF USE” (priority 2015, published 2018)

Columns and labels:
Cathepsin B = Cathepsin B (Homo sapiens, UniProt P07858); assay: Cathepsin B cleavage assay of dipeptide linker-drug constructs; type: biochemical; conditions: NAC-quenched linker-drug, 2.5, 5 or 10 mol % enzyme, pH 6.0, room temperature, 15-90 min
Protocol: Initially linker drug constructs from Examples 3 and 4 were treated with IM N-acetyl cysteine solution to quench maleimide functionality prior to the cathepsin B treatment. Excess of N-acetyl cysteine is used to activate the Cathepsin B.
More specifically quenched linker-drugs in 1:1 acetonitrile:water solution (20 ul) were diluted with 20 mM HisC1 pH 6.0 to a final acetonitrile content of 10% v/v ([…]). Cathepsin B enzyme was added to result in 2.5 mol %, 5 mol % or 10 mol % enzyme relative to the linker-drug. Reactions were vortexed gently and kept at room temperature. At the time points of 15, 30, 60 and 90 min 3 ul of the reaction mixture were placed into the total recovery vial containing 5 uL Tris pH 9, 2 uL 100 mM […] (DHAA), 15 ul water. The samples were analyzed using Analytical Method B set forth above. Conversion was calculated based on the decrease of the starting material peak area.

293 T cells = assay: In vitro cell killing by calicheamicin and linker-drug constructs (CellTiter-Glo, 72 hours); type: cell-based
Protocol: (§1) 293 T cells were used along with MES SA and MES SA/Dx cells which comprise uterine sarcoma lines purchased from ATCC. The MES SA/Dx cell line was generated from MES SA cells cultured with increasing amounts of doxorubicin resulting in 100-fold resistance to doxorubicin and upregulation of MDR1.
(§2) The cells were cultured in a T75 flask to ˜50-80% confluency and harvested with trypsin into a single cell suspension. Five hundred (500) cells per well were seeded in tissue culture plates in 50 μL/well culture media and incubated at 37° C. for 18-24 hours. Compounds were diluted as 400× final desired concentrations in DMSO. Serial dilutions in DMSO were then diluted in culture media for a final DMSO concentration of 0.25% and 50 μL/well of the final dilution was added to the cells (Vf=100 μL). Upon plating and treatment, cells were returned to the incubator for an additional 72 hours. CellTiter-Glo reagent was prepared per manufacturer's instructions and added at 100 μL/well to the cultures. CellTiter-Glo allows for relative enumeration of metabolically active cells by quantifying intracellular ATP concentrations. After 5 minutes of incubation with CellTiter-Glo at ambient room temperature, 125 μL/well of the Cell Titer Glo/cell lysate solution was transferred into black assay plates, which were then read in a luminometer within 30 minutes.

[1] = tested on: MES SA/Dx cells (doxorubicin-resistant uterine sarcoma line, MDR1 upregulated); assay: as above; type: cell-based
Protocol: as §1, §2

[2] = tested on: MES SA cells (uterine sarcoma line); assay: as above; type: cell-based; conditions: for IC50: MES SA
Protocol: as §1, §2

[3] = LINKER DRUG IVK (1000 nM start, 10X dilutions)
[4] = SMALL MOLECULE IVK (10 nM start, 5X dilutions)
[5] = SMALL MOLECULE IVK (10 nM start, 5X dilutions), listed as N acetyl calicheamicin (lot B)

SMILES	cleavage by Cathepsin B (Cathepsin B)	rate of cleavage by Cathepsin B, compared between constructs (Cathepsin B)	IC50 (293 T cells; [3]) [nM]	IC50 [1, 3] [nM]	IC50 [2, 3] [nM]	IC50 (293 T cells; [4]) [nM]	IC50 (293 T cells; [5]) [nM]	IC50 [1, 4] [nM]	IC50 [1, 5] [nM]	IC50 [2, 4] [nM]	IC50 [2, 5] [nM]	derived IC50 values, range of activity ([2]; summary of Table 5)
CCN(C(C)=O)[C@H]1CO[C@@H](O[C@H]2[C@H](O[C@H]3C#C/C=C\C#C[C@]4(O)CC(=O)C(NC(=O)OC)=C3/C4=C\CSSC(C)(C)CCC(=O)NCCNC(=O)OCc3ccc(NC(=O)[C@H](CCCNC(N)=O)NC(=O)[C@@H](NC(=O)CCCCCN4C(=O)C=CC4=O)C(C)C)cc3)O[C@H](C)[C@@H](NO[C@H]3C[C@H](O)[C@H](SC(=O)c4c(C)c(I)c(O[C@@H]5O[C@@H](C)[C@H](O)[C@@H](OC)[C@H]5O)c(OC)c4OC)[C@@H](C)O3)[C@H]2O)C[C@@H]1OC [Val-Cit calicheamicin]	effectively cleaved	cleaved more rapidly than the Val-Ala dipeptidyl construct	46	> 1000	6.3							
CCN(C(C)=O)[C@H]1CO[C@@H](O[C@H]2[C@H](O[C@H]3C#C/C=C\C#C[C@]4(O)CC(=O)C(NC(=O)OC)=C3/C4=C\CSSC(C)(C)CCC(=O)NCCNC(=O)OCc3ccc(NC(=O)[C@H](C)NC(=O)[C@@H](NC(=O)CCCCCN4C(=O)C=CC4=O)C(C)C)cc3)O[C@H](C)[C@@H](NO[C@H]3C[C@H](O)[C@H](SC(=O)c4c(C)c(I)c(O[C@@H]5O[C@@H](C)[C@H](O)[C@@H](OC)[C@H]5O)c(OC)c4OC)[C@@H](C)O3)[C@H]2O)C[C@@H]1OC [Val-Ala calicheamicin]	effectively cleaved											
CCN(C(C)=O)[C@H]1CO[C@@H](O[C@H]2[C@H](O[C@H]3C#C/C=C\C#C[C@]4(O)CC(=O)C(NC(=O)OC)=C3/C4=C\CSSSC)O[C@H](C)[C@@H](NO[C@H]3C[C@H](O)[C@H](SC(=O)c4c(C)c(I)c(O[C@@H]5O[C@@H](C)[C@H](O)[C@@H](OC)[C@H]5O)c(OC)c4OC)[C@@H](C)O3)[C@@H]2O)C[C@@H]1OC [N acetyl calicheamicin (lot A), N-acetyl calicheamicin γ 1]						0.0409	0.052	30.6	17.1	0.0308	0.0693	picomolar range
